Each structure is given as a SMILES string. pIC50: −log10 of the molar value.

Assay [1] has as its target HIV Integrase (Human immunodeficiency virus type 1 group M subtype B, UniProt P04585). The assay is described as follows: Assay for Inhibition of Strand Transfer by HIV Integrase. The assay is classed as biochemical. On the procedure:
Assay for Inhibition of Strand Transfer by HIV Integrase
Inhibition of strand transfer was conducted according to Hazuda, D. J. et al. Nucleic Acids Res., 22, 1121 (1994), hereby incorporated by reference for these purposes.

The target in assay [2] is DNP-stimulatedATPase activity of rat liver mitochondria. Conditions: Koenig et al. 1993, read-out: IC50, DNP-stimulated ATPase activity; cited from earlier work.
Assay [3] addresses DNP-stimulatedATPase activity of rat liver mitoplast. The settings on record: Koenig et al. 1993, read-out: IC50, DNP-stimulated ATPase activity; cited from earlier work.

Take `CC=CC=CC1C(C)=CC2CC(C)CCC2C1(C)C(O)=C1C(=O)C(CO)N(C)C1=O` (centres unmarked) [Compound B]: the pIC50 in assay [1] was 4.96.

For the compound `CCCCCC1C(C)=CC2CC(C)CCC2C1(C)C(O)=C1C(=O)C(CO)N(C)C1=O` (centres unmarked) [Compound C], in assay [1], the pIC50 was 5.30.

Consider `CC=CC1C=CC2CC(C)CCC2C1(C)C(O)=C1C(=O)C(CO)N(C)C1=O` (centres unmarked) [Compound A, equisetin], for which the pIC50 was 5.15 in assay [1], about 8.10 in assay [2] and about 8.10 in assay [3].
